The record followed here is patent US7795220B2, “Conformationally constrained parathyroid hormones with alpha-helix stabilizers” (The General Hospital Corporation, priority 2003, dated 2010).

For experiment [1], the system named is P1R (recombinant P1R chimera) in HKRK-B28 cells. Kind of experiment: cAMP stimulation in HKRK-B28 cells. The format is cell-based, opposum/rat chimera. To be noted: for cAMP-stimulating potency higher than that of parent [M]PTH(1-14) / cAMP signaling potency diminished relative to parent [M]PTH(1-14): relative to parent [M]PTH(1-14); for increase in cAMP levels relative to basal: peptide at 1×10^−4M; for EC50: intracellular cAMP accumulation, read-out: cAMP-stimulating potency (EC50); for cAMP agonist activity at single high concentration (in words): peptide at 10^−4M. The text has this:
(§1) Cell Culture. The cell line HKRK-B28 (Takasu, H., et al., J. Bone Miner. Res. 14:11-20 (1999)) was derived from the porcine kidney cell line, LLC-PK1 by stable transfection with plasmid DNA encoding a recombinant P1R chimera comprised of the opposum P1R from the N-terminus to the mid region of TM3 and the rat P1R from the mid region of TM3 to the C-terminus. The surface density of the P1R in these cells is ˜280,000 receptors per cell. The clonal cell line LdelNt-2 was derived from LLC-PK, cells via stable transfection with a plasmid encoding P1R-delNt, a recombinant human PTH-1 receptor construct in which most of the amino-terminal extracellular domain is deleted. These cells, as well as COS-7 cells and SaOS-2-B10 cells, were cultured at […] in T-75 flasks ([…]) in Dulbecco's modified Eagle's medium (DMEM) supplemented with fetal bovine serum (10%), penicillin G (20 units/ml), streptomycin sulfate (20 μg/ml) and amphotericin B (0.05 μg/ml) in a humidified atmosphere containing 5% CO2. Stock solutions of EGTA/trypsin and antibiotics were from GLBCO; fetal bovine serum was from Hyclone Laboratories (Logan, Utah). COS-7 cells sub-cultured in 24-well plates were transfected with plasmid DNA (200 ng per well) encoding the wild-type human P1R or truncated human P1R deleted for residues (24-181) (Shimizu, M., et al., J. Biol. Chem. 275:21836-21843 (2000)) that was purified by cesium chloride/ethidium bromide density gradient centrifugation, and FuGENE 6 transfection reagent (Roche Indianapolis Ind.) according to the manufacturer's recommended procedure. All cells, in 24-well plates, were treated with fresh media and shifted to 33° C. for 12 to 24 h prior to assay.
cAMP Stimulation. Stimulation of cells with peptide analogs was performed in 24-well plates. Cells were rinsed with 0.5 mL of binding buffer (50 mM Tris-HCl, 100 mM NaCl, 5 mM KCl, 2 mM CaCl2, 5% heat-inactivated horse serum, 0.5% fetal bovine serum, adjusted to pH 7.5 with HCl) and treated with 200 μL of cAMP assay buffer (Delbecco's modified Eagle's medium containing 2 mM 3-isobutyl-1-methylxanthine, 1 mg/mL bovine serum albumin, 35 mM Hepes-NaOH, pH 7.4) and 100 μL of binding buffer containing varying amounts of peptide analog (final volume=300 μL). The medium was removed after incubation for 30 to 60 minutes at room temperature, and the cells were frozen on dry ice, lysed with 0.5 mL 50 mM HCl, and refrozen ([…]). The cAMP content of the diluted lysate was determined by radioimmunoassay. The EC50 response values were calculated using nonlinear regression (see below).
Data Calculation. Calculations were performed using Microsoft® Excel. Nonlinear regression analyses of binding and cAMP dose-response data were performed using the four-parameter equation: yp=Min+[(Max−Min)/(1+(IC50/x)^slope)]. The Excel Solver function was utilized for parameter optimization, as described previously (Carter, P. H., et al., Endocrinology 140: 4972-4981 (1999); Bowen, W. P., and Jerman, J. C., Trends in Pharmacol. Sci. 16: 413-417 (1995)). Differences between paired data sets were statistically evaluated using a one-tailed Student's t-test, assuming unequal variances for the two sets.
A general note: cAMP levels reflect the balance of adenylyl cyclase and phosphodiesterase activity.

In experiment [2] the target is T1, P1R (recombinant P1R chimera) in HKRK-B28 cells (UniProt P25107+P25961, A364S/A509S/A517P/A524T/DEL519-521/E344G/G506A/H528S/I365V/I416T/I429T/K402R/K465R/L320I/M408V/N352H/S511P/S523T/T335G/T421L/T487S/V367L/V433I).
T1 construct: the opposum P1R from the N-terminus to the mid region of TM3; the rat P1R from the mid region of TM3 to the C-terminus; expressed in transfected cells
Kind of experiment: biochemical. The format is binding, opposum/rat chimera. To be noted: for IC50: apparent binding affinity (IC50), inhibition of 125I-rPTH(1-21) analog tracer binding, B28 cells.
Description: as §1
Competition Binding. Binding reactions were performed with HKRK-B28 cells or in COS-7 cells in 24-well plates. The cells were rinsed with 0.5 mL of binding buffer, and then treated successively with 100 μL binding buffer, 100 μL of binding buffer containing various amounts of unlabeled competitor ligand, and 100 μL of binding buffer containing ca. 100,000 cpm of ^125I-[Aib^1,3,Nle^8,Gln^10,Har^11,Ala^12,Trp^14,Arg^19,Tyr^21]rPTH(1-21) (SEQ. ID. NO. 36) (ca. 26 fmol; final volume=300 μL). Incubations were 4 to 6 h at 4° C., at which time near equilibrium conditions were attained. Cells were then placed on ice, the binding medium was removed, and the monolayer was rinsed three times with 0.5 mL of cold binding buffer. The cells were subsequently lysed with 0.5 mL 5N NaOH and counted for radioactivity. For each tracer and in each experiment, the non-specific binding was determined as the radioactivity that bound in the presence of the same unlabeled peptide at a concentration of 1 μM, and was ˜1% of total radioactivity added for each tracer. The maximum specific binding (B0) was the total radioactivity bound in the absence of competing ligand, corrected for nonspecific binding, and for each tracer, ranged from 8% to 20% of the total radioactivity added. Nonlinear regression was used to calculate binding IC50 values (see below). Scatchard transformations of homologous competition binding data derived from studies with 26 fmol of ^125I-[Aib^1,3,Nle^8,Gln^10,Har^11,Ala^12,Trp^14, Arg^19,Tyr^21]rPTH(1-21) (SEQ. ID. NO. 36) were employed for estimations of apparent equilibrium dissociation constant (kDapps) and total number of ligand binding sites (Bmax), assuming a single class of binding sites and equal affinities of the iodinated and non iodinated ligand.
Data Calculation. Calculations were performed using Microsoft® Excel. Nonlinear regression analyses of binding and cAMP dose-response data were performed using the four-parameter equation: yp=Min+[(Max−Min)/(1+(IC50/x)^slope)]. The Excel Solver function was utilized for parameter optimization, as described previously (Carter, P. H., et al., Endocrinology 140: 4972-4981 (1999); Bowen, W. P., and Jerman, J. C., Trends in Pharmacol. Sci. 16: 413-417 (1995)). […]

Setting [3] is: relative to parent [M]PTH(1-14).

Values joined by “and” are separate entries in the source; they are usually repeats but may differ in a detail not shown here. Equal entries are not always repeated. Where two headings read alike, the source gives them in different places. Non-standard residues stand in square brackets, D forms with d. Residues, ends and D or L forms follow the SMILES beside them. No end group written: not given here. hArg = N=C(N)NCCCC[C@H](N)C(=O)O; Ac5c = NC1(C(=O)O)CCCC1; Deg = CCC(N)(CC)C(=O)O; Ac3c = NC1(C(=O)O)CC1; Aib = CC(C)(N)C(=O)O

T1 sequence (P25107+P25961 fused with the stated changes): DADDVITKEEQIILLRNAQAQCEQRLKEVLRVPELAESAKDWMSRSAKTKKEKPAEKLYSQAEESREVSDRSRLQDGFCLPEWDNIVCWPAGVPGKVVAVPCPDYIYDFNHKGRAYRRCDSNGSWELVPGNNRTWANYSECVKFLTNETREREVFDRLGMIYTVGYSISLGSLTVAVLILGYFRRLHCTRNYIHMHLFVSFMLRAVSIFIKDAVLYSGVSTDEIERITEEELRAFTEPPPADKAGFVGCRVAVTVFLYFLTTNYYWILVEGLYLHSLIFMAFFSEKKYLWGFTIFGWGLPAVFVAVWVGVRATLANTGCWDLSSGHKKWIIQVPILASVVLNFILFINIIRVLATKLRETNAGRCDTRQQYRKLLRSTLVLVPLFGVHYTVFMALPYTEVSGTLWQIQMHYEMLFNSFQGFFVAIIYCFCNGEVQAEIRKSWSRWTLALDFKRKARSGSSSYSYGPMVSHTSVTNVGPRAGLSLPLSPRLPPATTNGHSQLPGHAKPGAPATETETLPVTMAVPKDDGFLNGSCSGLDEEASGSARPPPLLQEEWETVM

In the case of “Ac5c-3: parent [M]PTH(1-14) analog in which alanine-3 was substituted with 1-aminocyclopentane-1-carboxylic acid (Ac5c)”, the “cAMP-stimulating potency higher than that of parent [M]PTH(1-14)” value in experiment [1] was “< two”. Further, in experiment [2], the “P1R binding affinity (in words)” value is “little or no effect on binding affinity”.

For “[Aib^1,3,Gln^10]PTH(1-10)NH2 ([Aib]V[Aib]EIQLMHQ-NH2; N-terminus assumed; SMILES CC[C@H](C)[C@H](NC(=O)[C@H](CCC(=O)O)NC(=O)C(C)(C)NC(=O)[C@@H](NC(=O)C(C)(C)N)C(C)C)C(=O)N[C@@H](CCC(N)=O)C(=O)N[C@@H](CC(C)C)C(=O)N[C@@H](CCSC)C(=O)N[C@@H](Cc1c[nH]cn1)C(=O)N[C@@H](CCC(N)=O)C(N)=O) [ID; NO; 35]”, the “increase in cAMP levels relative to basal” value in experiment [1] (HKRK-B28 cells) is “two”. Besides, the “activity / cAMP response in cell-based assays (in words)” value in experiment [1] (P1R-transfected cells) is reported as “measurable cAMP responses can be detected”.

`CC[C@H](C)[C@H](NC(=O)[C@H](CCC(=O)O)NC(=O)C(CC)(CC)NC(=O)[C@@H](NC(=O)[C@H](C)N)C(C)C)C(=O)N[C@@H](CCC(N)=O)C(=O)N[C@@H](CC(C)C)C(=O)N[C@@H](CCSC)C(=O)N[C@@H](Cc1c[nH]cn1)C(=O)N[C@@H](CCC(N)=O)C(=O)N[C@@H](CCCCNC(=N)N)C(=O)N[C@@H](C)C(=O)N[C@@H](CCCCN)C(=O)N[C@@H](Cc1c[nH]c2ccccc12)C(N)=O` [Deg-3] (H-AV[Deg]EIQLMHQ[hArg]AKW-NH2): the “cAMP signaling potency diminished relative to parent [M]PTH(1-14)” value in experiment [1] is recorded as “approximately 10 fold”. Besides, in experiment [1] (listed as Deg^3), the “cAMP signaling potency diminished relative to parent [M]PTH(1-14)” value was around 40 fold. In experiment [2], the IC50 was around 3000 nM and the “P1R binding affinity (in words)” value is listed as “little or no effect on binding affinity”. The “binding affinity higher than that of parent [M]PTH(1-14)” value in experiment [2] (setting [3]) is “around 1.5 fold”.

On to `CC[C@H](C)[C@H](NC(=O)[C@H](CCC(=O)O)NC(=O)C1(NC(=O)[C@@H](NC(=O)[C@H](C)N)C(C)C)CCCC1)C(=O)N[C@@H](CCC(N)=O)C(=O)N[C@@H](CC(C)C)C(=O)N[C@@H](CCSC)C(=O)N[C@@H](Cc1c[nH]cn1)C(=O)N[C@@H](CCC(N)=O)C(=O)N[C@@H](CCCCNC(=N)N)C(=O)N[C@@H](C)C(=O)N[C@@H](CCCCN)C(=O)N[C@@H](Cc1c[nH]c2ccccc12)C(N)=O` [Ac5c^3] (H-AV[Ac5c]EIQLMHQ[hArg]AKW-NH2), for which the 50% inhibitory concentration (IC50) in experiment [2] was around 3000 nM.

In the case of `CC[C@H](C)[C@H](NC(=O)[C@H](CCC(=O)O)NC(=O)[C@H](C)NC(=O)[C@@H](NC(=O)[C@H](C)N)C(C)C)C(=O)N[C@@H](CCC(N)=O)C(=O)N[C@@H](CC(C)C)C(=O)N[C@@H](CCSC)C(=O)N[C@@H](Cc1cnc[nH]1)C(=O)N[C@@H](CCC(N)=O)C(=O)N[C@@H](CCCCN=C(N)N)C(=O)N[C@@H](C)C(=O)N[C@@H](CCCCN)C(=O)N[C@@H](Cc1c[nH]c2ccccc12)C(N)=O` [[M]PTH(1-14), [Ala^1,3,12,Gln^10,Har^11,Trp^14]PTH(1-14)NH2, reference compound] (H-AVAEIQLMHQ[hArg]AKW-NH2), the 50% inhibitory concentration (IC50) in experiment [2] was ~3000 nM and 600 nM.

In the case of “[Ac3c^1,3,Gln^10,Har^11,Ala^12,Trp^14]PTH(1-14)NH2 ([Ac3c]V[Ac3c]EIQLMHQ[hArg]AKW-NH2) [[Ac3c^1,3,M]PTH(1-14)]”, in experiment [1], the “cAMP agonist activity / signaling potency (in words)” value was “comparable to the parent peptide”. In addition, the “P1R binding affinity (in words)” value in experiment [2] was “comparable to the parent peptide”.

On to `CC[C@H](C)[C@H](NC(=O)[C@H](CCC(=O)O)NC(=O)[C@H](C)NC(=O)[C@@H](NC(=O)[C@H](C)N)C(C)C)C(=O)N[C@@H](CCC(N)=O)C(=O)N[C@@H](CC(C)C)C(=O)N[C@@H](CCSC)C(=O)N[C@@H](Cc1c[nH]cn1)C(=O)N[C@@H](CCC(N)=O)C(=O)N[C@@H](CCCCNC(=N)N)C(=O)N[C@@H](C)C(=O)N[C@@H](CCCCN)C(=O)N[C@@H](Cc1c[nH]c2ccccc12)C(N)=O` [[M]PTH(1-14), [Ala^1,3,12,Gln^10,Har^11,Trp^14]PTH(1-14)NH2, reference compound] (H-AVAEIQLMHQ[hArg]AKW-NH2), for which the EC50 was 220 ± 80 nM in experiment [1] (HKRK-B28 cells, listed as [Ala^1,3,12,Gln^10,Har^11,Trp^14]PTH(1-14)NH2) and 200 nM in experiment [1] (HKRK-B28 cells). The “maximum cAMP response” value in experiment [1] (HKRK-B28 cells, n=7) was 225±21 picomoles of cAMP per well.

As for “native PTH(1-9): native PTH(1-9) (SEQ. ID. NO. 33) (SVSEIQLMH-NH2) [reference compound]”, the “cAMP agonist activity at single high concentration (in words)” value in experiment [1] is “inactive”.

Turning to “[Ac5c^1,Aib^3]PTH(1-9)NH2 ([Ac5c]V[Aib]EIQLMH-NH2; N-terminus assumed; SMILES CC[C@H](C)[C@H](NC(=O)[C@H](CCC(=O)O)NC(=O)C(C)(C)NC(=O)[C@@H](NC(=O)C1(N)CCCC1)C(C)C)C(=O)N[C@@H](CCC(N)=O)C(=O)N[C@@H](CC(C)C)C(=O)N[C@@H](CCSC)C(=O)N[C@@H](Cc1c[nH]cn1)C(N)=O) [[Ac5c^1,Aib^3,M]PTH(1-9)]”, in experiment [1] (HKRK-B28 cells), the “increase in cAMP levels relative to basal” value is reported as “six”. In experiment [1], the “cAMP agonist activity / signaling potency (in words)” value is listed as “clear cAMP response” and the “cAMP agonist activity at single high concentration (in words)” value was “clear agonist activity”. The “inhibition of tracer radioligand binding” value in experiment [2] (concentrations as high as 1×10^−4M, HKRK-B28 cells) is recorded as “neither peptide inhibited the binding”.

On to “Ac3c-3: parent [M]PTH(1-14) analog in which alanine-3 was substituted with 1-aminocyclopropane-1-carboxylic acid (Ac3c)”, for which the “cAMP-stimulating potency higher than that of parent [M]PTH(1-14)” value in experiment [1] is on record as “< two”. The “binding affinity lower than that of parent [M]PTH(1-14)” value in experiment [2] (setting [3]) is on record as “approximately 10 fold”.

Broadly, the IC50 is the concentration that inhibits the measured activity by half. Usually EC50 stands for the concentration needed to bring the measured effect to its halfway point.
